The text below walks through data of ChEMBL document CHEMBL1152687, “Synthesis and biological evaluation of the metabolites of 2-(1-{3-[(6-chloronaphthalen-2-yl)sulfonyl]propanoyl}piperidin-4-yl)-5-methyl-1,2-dihydro-3H-imidazo[1,5-c]imidazol-3-one” (Bioorg Med Chem, 2009).

One data set deals with Coagulation factor X (Homo sapiens, UniProt P00742). The data set can be described thus: Inhibition of human factor 10a by para-nitroanilide release assay.
Data set [1] in a line: Plasma concentration in cynomolgus monkey at 1 mg/kg, po after 4 hrs. It is filed as ADME, organism-based, Macaca fascicularis. Details: dose 1 mg/kg, route oral.
Data set [2] in a line: AUC (0 to 10 hrs) in cynomolgus monkey at 1 mg/kg, po. Particulars: plasma. Details: time < 10 hr, dose 1 mg/kg, route oral. It is filed as ADME, organism-based, Macaca fascicularis.
The nature of data set [3]: Plasma concentration in cynomolgus monkey at 1 mg/kg, po after 1 hr. The data set is classed as ADME, organism-based, Macaca fascicularis. Also on record: dose 1 mg/kg, route oral.
Data set [4] in a line: Plasma concentration in cynomolgus monkey at 1 mg/kg, po after 10 hrs. It is filed as ADME, organism-based, Macaca fascicularis. Details: dose 1 mg/kg, route oral.
Data set [5] in a line: Plasma concentration in cynomolgus monkey at 1 mg/kg, po after 2 hrs. It is filed as ADME, organism-based, Macaca fascicularis. Also on record: dose 1 mg/kg, route oral.
The next data set concerns the target Trypsin (Homo sapiens, UniProt P07477+P07478+P35030). The data set can be described thus: Inhibition of human trypsin by para-nitroanilide release assay. It is filed as protein assay.
Data set [6] is described as follows: Volume of distribution at steady state in cynomolgus monkey at 0.1 mg/kg, iv. The following applies: in vivo, read-out: Vdss. Also on record: dose 0.1 mg/kg, route intravenous. The data set is classed as ADME, organism-based, Macaca fascicularis.
A short description of data set [7]: Total clearance in cynomolgus monkey at 0.1 mg/kg, iv. It is filed as ADME, organism-based, Macaca fascicularis. The following applies: in vivo. Details: dose 0.1 mg/kg, route intravenous.
The target in a further data set is Prothrombin (Homo sapiens, UniProt P00734). Briefly: Inhibition of human thrombin by para-nitroanilide release assay.
In another data set the target is Plasminogen (Homo sapiens, UniProt P00747). Briefly: Inhibition of human plasmin by para-nitroanilide release assay.
The nature of data set [8]: Cmax in cynomolgus monkey at 1 mg/kg, po. It is filed as ADME, organism-based, Macaca fascicularis. Details: dose 1 mg/kg, route oral. The following applies: in vivo.
For data set [9], the target named is Tissue-type plasminogen activator (Homo sapiens, UniProt P00750). The data set can be described thus: Inhibition of human tissue plasminogen activator by para-nitroanilide release assay.
Data set [10] in a line: AUC in cynomolgus monkey at 1 mg/kg, po. It is filed as ADME, organism-based, Macaca fascicularis. Also on record: dose 1 mg/kg, route oral. The following applies: plasma.
Data set [11] can be described thus: Mean residence time in cynomolgus monkey at 1 mg/kg, po. It is filed as ADME, organism-based, Macaca fascicularis. Also on record: dose 1 mg/kg, route oral. The following applies: in vivo.
A short description of data set [12]: Oral bioavailability in cynomolgus monkey at 1 mg/kg, po. The data set is classed as ADME, organism-based, Macaca fascicularis. The following applies: in vivo.

SMILES strings stand for the structures.

Chain of Coagulation factor X (P00742 41-179 limits assumed): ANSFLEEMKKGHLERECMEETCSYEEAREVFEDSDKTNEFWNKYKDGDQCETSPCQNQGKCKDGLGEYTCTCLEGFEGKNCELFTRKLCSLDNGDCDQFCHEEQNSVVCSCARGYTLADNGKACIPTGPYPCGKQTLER
Chain of Coagulation factor X (P00742 235-488 limits assumed): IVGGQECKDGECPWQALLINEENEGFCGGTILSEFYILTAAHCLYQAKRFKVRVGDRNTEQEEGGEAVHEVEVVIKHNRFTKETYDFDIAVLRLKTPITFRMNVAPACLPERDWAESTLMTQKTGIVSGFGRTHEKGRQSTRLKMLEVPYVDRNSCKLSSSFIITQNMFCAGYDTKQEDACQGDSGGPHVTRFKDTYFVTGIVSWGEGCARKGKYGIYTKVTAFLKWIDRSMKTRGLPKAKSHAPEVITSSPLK
Chain of Plasminogen (P00747 97-580 limits assumed): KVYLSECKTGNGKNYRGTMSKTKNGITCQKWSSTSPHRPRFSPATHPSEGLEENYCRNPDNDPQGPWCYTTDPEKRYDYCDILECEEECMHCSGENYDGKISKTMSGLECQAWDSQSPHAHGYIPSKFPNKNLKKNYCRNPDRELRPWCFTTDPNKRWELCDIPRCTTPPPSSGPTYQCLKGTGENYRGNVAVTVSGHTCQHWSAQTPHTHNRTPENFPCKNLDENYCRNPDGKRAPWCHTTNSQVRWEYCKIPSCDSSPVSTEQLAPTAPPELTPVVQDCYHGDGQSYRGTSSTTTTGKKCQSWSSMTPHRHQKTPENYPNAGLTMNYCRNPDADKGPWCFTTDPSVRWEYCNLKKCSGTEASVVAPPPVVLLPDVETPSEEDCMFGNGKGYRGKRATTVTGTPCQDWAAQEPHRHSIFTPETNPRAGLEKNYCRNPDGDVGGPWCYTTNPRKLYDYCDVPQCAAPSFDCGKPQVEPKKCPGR
Chain of Plasminogen (P00747 581-810 limits assumed): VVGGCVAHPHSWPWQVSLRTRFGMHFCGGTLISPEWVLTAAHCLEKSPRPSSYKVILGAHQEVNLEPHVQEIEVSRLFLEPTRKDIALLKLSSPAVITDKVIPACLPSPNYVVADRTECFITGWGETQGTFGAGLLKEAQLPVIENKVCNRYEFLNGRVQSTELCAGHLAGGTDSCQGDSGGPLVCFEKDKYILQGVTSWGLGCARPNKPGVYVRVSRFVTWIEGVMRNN
Chain of Tissue-type plasminogen activator (P00750 whole entry): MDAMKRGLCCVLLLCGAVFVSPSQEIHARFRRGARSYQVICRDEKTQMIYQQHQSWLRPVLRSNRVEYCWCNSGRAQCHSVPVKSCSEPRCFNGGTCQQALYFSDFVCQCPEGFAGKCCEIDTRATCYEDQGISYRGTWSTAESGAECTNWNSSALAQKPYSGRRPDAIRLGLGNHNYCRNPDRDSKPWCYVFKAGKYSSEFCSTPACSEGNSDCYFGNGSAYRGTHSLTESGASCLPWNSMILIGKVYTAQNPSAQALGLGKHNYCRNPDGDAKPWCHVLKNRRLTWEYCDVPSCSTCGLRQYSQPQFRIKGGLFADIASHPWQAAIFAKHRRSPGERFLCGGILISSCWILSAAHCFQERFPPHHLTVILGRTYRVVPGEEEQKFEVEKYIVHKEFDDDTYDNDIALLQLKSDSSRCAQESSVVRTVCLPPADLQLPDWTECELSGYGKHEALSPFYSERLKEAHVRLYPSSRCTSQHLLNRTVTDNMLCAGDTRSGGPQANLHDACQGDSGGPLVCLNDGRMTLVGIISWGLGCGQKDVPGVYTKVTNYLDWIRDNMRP

For orientation: IC50 means the concentration that gives 50% inhibition. Consider `O=S(O)c1ccc2cc(Cl)ccc2c1`, for which the IC50 at Coagulation factor X is > 5 µM.
Broadly, the AUC(0-t) is exposure summed from dosing to a finite time, without extrapolation to infinity. For the compound `Cc1ncc2n1C(=O)N(C1CCN(C(=O)CCS(=O)(=O)c3ccc4cc(Cl)ccc4c3)CC1)C2`, the concentration at 4 h in [1] came out at 65.9 ng/mL. This compound also showed an AUC(0-t) at 10 h in data set [2] of 583 ng·h/mL. In [3], the concentration at 1 h came to 92.8 ng/mL. Further, the concentration at 10 h in data set [4] stood at 9.9 ng/mL. The same compound returned a concentration at 2 h in data set [5] of 132 ng/mL.
As to `NC1CCN(C(=O)CCS(=O)(=O)c2ccc3cc(Cl)ccc3c2)CC1`, at Coagulation factor X, the IC50 is > 5 µM.
In data set [1], `Cc1ncc2n1C(=O)N(C1CCN(C(=O)[C@@H](O)CS(=O)(=O)c3ccc4cc(Cl)ccc4c3)CC1)C2` yielded a concentration at 4 h of 91 ng/mL. The compound further showed an AUC(0-t) at 10 h in data set [2] of 54.6 ng·h/mL. In addition, in data set [3], the concentration at 1 h was determined as 0.8 ng/mL. Further, the concentration at 10 h in [4] was found to be 3.6 ng/mL. The same compound returned a concentration at 2 h in data set [5] of 4.4 ng/mL.
One may read the Ki as a measure of affinity in units of concentration, obtained from inhibition or displacement. A word on the clearance: it is the rate of elimination divided by the concentration. The term Cmax denotes the maximum level reached in the sampled fluid or tissue. The AUC is concentration integrated over time. A word on the MRT: it is a mean duration of stay, worked out from the concentration-time curve. The bioavailability is dose-corrected exposure relative to a reference, in per cent. In the case of `Cc1ncc2n1C(=O)N(C1CCN(C(=O)[C@H](O)CS(=O)(=O)c3ccc4cc(Cl)ccc4c3)CC1)C2`, the Ki at Trypsin was > 60 µM; at Prothrombin, 1.9 µM; at Plasminogen, > 60 µM; in data set [9], > 60 µM. In data set [6], the Vd came out at 0.719 L/kg. In [7], this compound gave a clearance of 14.2 mL/min/kg. The concentration at 4 h in data set [1] is 6.5 ng/mL. The AUC(0-t) at 10 h in data set [2] amounted to 44.2 ng·h/mL. In data set [3], the concentration at 1 h came out at 2.7 ng/mL. In data set [8], this compound came in with a Cmax of 30.5 ng/mL. The compound further showed a concentration at 10 h in [4] of 1.8 ng/mL. The AUC in data set [10] was determined as 307 ng·h/mL. For the same compound, the MRT in [11] came to 7.05 h. For the same compound, the bioavailability in data set [12] amounted to 25.4%. In [5], this compound had a concentration at 2 h of 6.8 ng/mL.
Take `O=C(CCS(=O)(=O)c1ccc2cc(Cl)ccc2c1)N1CCC(N2Cc3cnc(CO)n3C2=O)CC1`: the Ki was > 60 µM on Trypsin, 7.8 µM on Prothrombin, > 60 µM at Plasminogen and > 60 µM in [9]. Besides, in [6], the Vd came out at 0.588 L/kg. In data set [7], this compound showed a clearance of 11.9 mL/min/kg. The concentration at 4 h in [1] was 13.3 ng/mL. The same compound registered an AUC(0-t) at 10 h in data set [2] of 107 ng·h/mL. The compound also registered a concentration at 1 h in data set [3] of 16.6 ng/mL. In data set [8], this compound yielded a Cmax of 60.1 ng/mL. Moreover, the AUC in data set [10] amounted to 470 ng·h/mL. Further, the MRT in [11] was found to be 7.56 h. In data set [12], this compound returned a bioavailability of 32.3%. The concentration at 2 h in data set [5] worked out at 25 ng/mL.
`Cc1ncc2n1C(=O)N(C1CCN(C(=O)C(=O)CS(=O)(=O)c3ccc4cc(Cl)ccc4c3)CC1)C2`: the IC50 against Coagulation factor X came to 0.93 µM.
The same measure, in the same setting: the figure for `O=C(O)CCS(=O)(=O)c1ccc2cc(Cl)ccc2c1` is > 5 µM.
